Experimental data published in patent US12576163B2, “Fluorescent contrast agent with targeting function, and preparation method and use thereof” (priority 2022, dated 2026).

Columns and labels:
[1] = UV-VIS and fluorescence spectroscopy; assay type: physicochemical; conditions: UV-VIS spectrum
Method: A size of the contrast agent was detected with the Zetasizer nano-ZS. 10 μL of each of MR780 NPs, FITC-MR780 NPs, and FITC-DSPC NPs was taken and added dropwise on a mesh, air-dried, stained with phosphotungstic acid (10 μL, 3.0%), then washed with deionized water, and air-dried. Morphological images of the mannose contrast agents were acquired through high-resolution transmission electron microscopy (HRTEM). Since MR780 NPs need to emit reduced glutathione-responsive fluorescence in a tumor microenvironment, it must be ensured that MR780 NPs can stably restore the fluorescence signal after reacting with reduced glutathione. 10 μL of MR780 NPs was thoroughly mixed with 10 mM reduced glutathione, and a resulting mixture was shaken at room temperature in the dark; and the fluorescence restoration of MR780 NPs in each group was tested at 10 min, 1 h, 2 h, and 4 h. The UV-VIS spectroscopy and fluorescence spectroscopy were conducted respectively on a UV-VIS spectrophotometer and a fluorescence spectrophotometer.

[2] = system: induced RAW264.7 cells (CD206); conditions: pre-blocking 2 h at 10-100 mg/mL, then FITC-MR780 NPs 40 μg/mL 2 h; FCM
Method: After 2 h of co-incubation, the DMEM was changed, FITC-MR780 NPs 40 μg/mL was added in each group, and then co-incubation was conducted for 2 h. A fluorescence signal of FITC in cells of each group was determined by FCM.
2 h before the blocking experiment, free mannose was added in advance at different concentrations, then FITC-MR780 NPs were added, and then co-incubation was conducted for 2 h. An intracellular fluorescence intensity of FITC was determined by FCM.

[3] = system: CD206 on a surface of RAW264.7 cells; assay: Induction of macrophage differentiation, CD206 expression by FCM; assay type: cell-based, mouse; conditions: 24 h with inducer (IL-4 20 ng/mL; LPS 100 ng/mL)
Method: RAW264.7 cells at a logarithmic growth phase were plated in a 6-well plate at a density of 1×10^5 cells/mL, then a DMEM was added at 2 mL/well, the plate was incubated overnight, and then interleukin-4 (IL-4) was added to the culture at a final concentration of 20 ng/mL. The IL-4 was an M2 macrophage inducer. In a control group, an M1 macrophage inducer lipopolysaccharide (LPS) was added to the culture at a final concentration of 100 ng/mL and then incubated for 24 h.
The expression of CD206 on a surface of RAW264.7 cells before and after induction was determined by FCM. Cells were digested and centrifuged, 0.5 μg of mouse CD16/32 monoclonal antibody (mAb) was added, and a resulting mixture was incubated at room temperature for 10 min. Then 0.5 mL of a 1× fixation buffer was added, a resulting mixture was incubated in the dark for 20 min and then centrifuged at 350 g for 5 min, and a resulting supernatant was discarded. 2 mL of a membrane disruption solution was added, and a resulting suspension was centrifuged at 350 g for 5 min; and the operation was repeated once. […] 200 μL of PBS was added to resuspend the cells, and the expression of CD206 on a cell surface in each of the two groups was detected by FCM.

Molecule: CCCN1/C(=C/C=C2\CCCC(/C=C/C3=[N+](CCC)c4ccccc4C3(C)C)=C2Cl)C(C)(C)c2ccccc21.[I-] [IR780]
- UV-VIS maximum absorbance / maximum absorption peak [1]: 780 nm

Molecule: Nc1ccc(O[C@H]2O[C@H](CO)[C@@H](O)[C@H](O)[C@@H]2O)cc1 [free mannose, 4-aminophenyl-α-D-mannopyranoside]
- phagocytosis of cells for FITC-MR780 NPs after pre-blocking [2]: decreases significantly

B1: IL-4: interleukin-4, M2 macrophage inducer (protein, UniProt P05112 25-153, looked up)
Interleukin-4: HKCDITLQEIIKTLNSLTEQKTLCTELTVTDIFAASKNTTEKETFCRAATVLRQFYSHHEKDTRCLGATAQQFHRHKQLIRFLKRLDRNLWGLAGLNSCPVKEANQSTLENFLERLKTIMREKYSKCSS
- expression of CD206 [3]: 81.22±0.64%
